The term IC50 denotes the midpoint of a concentration-inhibition curve. What is called Ki is a dissociation constant, usually derived from enzyme kinetics or from competition with a known ligand.

The target in experiment [1] is T1, Tyrosine-protein phosphatase non-receptor type 5 (Homo sapiens) (UniProt P54829).
T1 sequence (whole entry): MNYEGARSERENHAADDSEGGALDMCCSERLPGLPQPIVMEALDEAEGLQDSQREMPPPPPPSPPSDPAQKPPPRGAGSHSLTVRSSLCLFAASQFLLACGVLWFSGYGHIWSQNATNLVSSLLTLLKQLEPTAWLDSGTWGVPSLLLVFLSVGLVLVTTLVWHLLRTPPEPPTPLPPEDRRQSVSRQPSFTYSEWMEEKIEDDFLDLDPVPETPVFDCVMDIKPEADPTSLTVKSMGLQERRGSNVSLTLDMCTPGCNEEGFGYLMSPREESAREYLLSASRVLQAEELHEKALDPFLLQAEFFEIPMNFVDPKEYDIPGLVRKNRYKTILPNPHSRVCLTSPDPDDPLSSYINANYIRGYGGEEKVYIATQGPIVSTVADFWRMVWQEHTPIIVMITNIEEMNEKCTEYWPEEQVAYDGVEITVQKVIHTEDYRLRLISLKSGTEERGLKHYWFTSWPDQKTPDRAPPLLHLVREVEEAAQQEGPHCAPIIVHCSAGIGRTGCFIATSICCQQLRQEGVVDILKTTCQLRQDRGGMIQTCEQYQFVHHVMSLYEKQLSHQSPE
The experiment can be described thus: Inhibition of PTPN5 (unknown origin) using pNPP as substrate assessed as fraction of control at 100 uM by high-throughput screening assay relative to control.

Experiment [2] addresses T2, Tyrosine-protein phosphatase non-receptor type 7 (Homo sapiens) (UniProt P35236).
T2 sequence (whole entry): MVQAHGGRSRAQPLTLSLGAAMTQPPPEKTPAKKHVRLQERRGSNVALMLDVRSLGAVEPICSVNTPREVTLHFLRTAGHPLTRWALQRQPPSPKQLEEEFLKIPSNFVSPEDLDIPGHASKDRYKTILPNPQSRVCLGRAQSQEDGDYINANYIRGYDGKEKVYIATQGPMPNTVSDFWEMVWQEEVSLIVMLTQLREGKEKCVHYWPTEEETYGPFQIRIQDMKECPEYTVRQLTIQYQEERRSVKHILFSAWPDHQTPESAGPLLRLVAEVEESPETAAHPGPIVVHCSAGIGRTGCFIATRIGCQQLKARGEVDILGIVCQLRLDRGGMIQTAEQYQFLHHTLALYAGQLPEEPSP
Kind of experiment: Inhibition of PTPN7 (unknown origin) using pNPP as substrate assessed as fraction of control at 100 uM by high-throughput screening assay relative to control.

Experiment [3] has as its target T3, Receptor-type tyrosine-protein phosphatase R (Homo sapiens) (UniProt Q15256).
T3 sequence (whole entry): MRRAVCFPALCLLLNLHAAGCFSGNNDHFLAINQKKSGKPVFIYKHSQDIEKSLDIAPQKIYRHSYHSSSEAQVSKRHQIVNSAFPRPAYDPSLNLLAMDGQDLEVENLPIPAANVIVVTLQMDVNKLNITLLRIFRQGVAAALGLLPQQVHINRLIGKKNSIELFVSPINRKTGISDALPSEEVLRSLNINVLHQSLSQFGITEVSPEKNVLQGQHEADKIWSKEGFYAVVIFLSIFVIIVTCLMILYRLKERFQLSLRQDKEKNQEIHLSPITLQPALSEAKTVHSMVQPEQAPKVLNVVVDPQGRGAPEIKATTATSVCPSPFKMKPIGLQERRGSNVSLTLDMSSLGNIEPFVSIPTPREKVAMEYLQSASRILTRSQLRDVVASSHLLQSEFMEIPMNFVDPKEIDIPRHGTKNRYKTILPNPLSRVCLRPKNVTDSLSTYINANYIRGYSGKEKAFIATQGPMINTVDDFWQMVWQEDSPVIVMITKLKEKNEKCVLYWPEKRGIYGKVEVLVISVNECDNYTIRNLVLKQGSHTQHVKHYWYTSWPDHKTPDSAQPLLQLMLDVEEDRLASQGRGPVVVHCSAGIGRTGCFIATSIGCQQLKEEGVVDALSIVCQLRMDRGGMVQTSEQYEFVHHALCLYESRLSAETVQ
The experiment can be described thus: Inhibition of PTPRR (unknown origin) using pNPP as substrate assessed as fraction of control at 100 uM by high-throughput screening assay relative to control.

Experiment [4] has as its target T4, Tyrosine-protein phosphatase non-receptor type 1 (Homo sapiens) (UniProt P18031).
T4 sequence (whole entry): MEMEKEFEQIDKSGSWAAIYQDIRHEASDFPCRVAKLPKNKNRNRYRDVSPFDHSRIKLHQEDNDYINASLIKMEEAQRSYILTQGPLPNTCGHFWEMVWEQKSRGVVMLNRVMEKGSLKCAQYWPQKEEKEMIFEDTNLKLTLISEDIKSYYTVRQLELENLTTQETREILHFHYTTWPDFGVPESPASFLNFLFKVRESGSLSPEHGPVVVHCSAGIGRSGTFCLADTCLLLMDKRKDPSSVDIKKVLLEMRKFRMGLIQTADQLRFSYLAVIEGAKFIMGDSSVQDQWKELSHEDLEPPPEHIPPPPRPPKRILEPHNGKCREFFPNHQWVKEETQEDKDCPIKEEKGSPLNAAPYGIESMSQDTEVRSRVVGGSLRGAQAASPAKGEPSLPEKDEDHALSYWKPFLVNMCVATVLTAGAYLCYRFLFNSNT
The experiment can be described thus: Inhibition of PTP1B (unknown origin) using pNPP as substrate assessed as fraction of control at 100 uM by high-throughput screening assay relative to control.

The target in experiment [5] is T5, M-phase inducer phosphatase 2 (Homo sapiens, UniProt P30305).
T5 sequence (P30305 whole entry): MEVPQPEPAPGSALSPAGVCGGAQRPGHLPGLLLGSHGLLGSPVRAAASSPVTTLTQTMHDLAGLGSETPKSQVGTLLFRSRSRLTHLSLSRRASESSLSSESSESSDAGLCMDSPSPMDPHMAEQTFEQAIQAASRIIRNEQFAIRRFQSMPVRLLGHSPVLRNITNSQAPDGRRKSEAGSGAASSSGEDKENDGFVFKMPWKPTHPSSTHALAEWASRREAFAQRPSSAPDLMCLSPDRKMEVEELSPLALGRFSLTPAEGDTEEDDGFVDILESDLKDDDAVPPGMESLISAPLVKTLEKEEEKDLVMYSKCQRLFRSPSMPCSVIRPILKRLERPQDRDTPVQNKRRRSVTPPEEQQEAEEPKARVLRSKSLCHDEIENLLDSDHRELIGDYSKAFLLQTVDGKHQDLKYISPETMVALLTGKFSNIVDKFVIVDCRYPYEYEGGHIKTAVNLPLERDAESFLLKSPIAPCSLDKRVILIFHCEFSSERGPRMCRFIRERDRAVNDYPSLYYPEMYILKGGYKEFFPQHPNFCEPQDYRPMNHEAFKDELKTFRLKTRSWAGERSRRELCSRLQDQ
Kind of experiment: Inhibition of full-length 6His/GST-tagged recombinant human CDC25B using OMFP as substrate incubated for 60 mins by fluorescence based analysis.

Experiment [6] in a line: Inhibition of MurA (unknown origin) preincubated for 30 mins followed by substrate addition and measured after 8 mins by spectrometric analysis. On the set-up: species or system Bacteria.
Experiment [7] concerns the target SH3 and multiple ankyrin repeat domains protein 3 (Mus musculus, UniProt Q4ACU6). The experiment can be described thus: Binding affinity to His-tagged murine Shank3 PDZ domain assessed as inhibition constant by fluorescence polarization assay.
The nature of experiment [8]: Inhibition of Helicobacter pylori recombinant IspD domain of IspDF by HTS based photometric assay.
Experiment [9] concerns the target T6, Tyrosine-protein phosphatase non-receptor type 1 (Homo sapiens, UniProt P18031).
T6 sequence (P18031 whole entry): T4 sequence (whole entry)
The experiment can be described thus: Inhibition of human recombinant PTP1B using OMFP as substrate incubated for 60 mins by fluorescence based analysis.

Experiment [10] is described as follows: Binding affinity to Yellow fever virus 17D recombinant NS5 N-terminal capping enzyme domain expressed in Escherichia coli BL21 (DE3) assessed as inhibition constant incubated for 1 hr by high-throughput screening fluorescence polarization assay. (Fluorescence polarisation rises when a labelled molecule tumbles more slowly, as on binding a larger partner.)

The target of experiment [11] is Diacylglycerol kinase alpha (Sus scrofa, UniProt P20192). The experiment can be described thus: Inhibition of GST-fused pig DGK alpha expressed in Sf9 insect cells incubated for 2 hrs by HTS ADP-Glo DGK assay. (In general: ADP-Glo turns the ADP formed in a reaction into a luminescent signal.)
The target of experiment [12] is Serine/threonine-protein kinase PLK1 (Homo sapiens, UniProt P53350). Kind of experiment: Inhibition of GST-tagged recombinant PLK1 (unknown origin) using 5-carboxyfluorescein-KKRNRRLSVA-OH peptide as substrate incubated for 3 hrs in presence of ATP by HTS TR-FRET assay. A general note: Time-resolved FRET reads energy transfer from a long-lived donor to a nearby acceptor.

Some results are limits rather than exact numbers.

Sequence of SH3 and multiple ankyrin repeat domains protein 3 (Q4ACU6 whole entry, the tested form may be a part): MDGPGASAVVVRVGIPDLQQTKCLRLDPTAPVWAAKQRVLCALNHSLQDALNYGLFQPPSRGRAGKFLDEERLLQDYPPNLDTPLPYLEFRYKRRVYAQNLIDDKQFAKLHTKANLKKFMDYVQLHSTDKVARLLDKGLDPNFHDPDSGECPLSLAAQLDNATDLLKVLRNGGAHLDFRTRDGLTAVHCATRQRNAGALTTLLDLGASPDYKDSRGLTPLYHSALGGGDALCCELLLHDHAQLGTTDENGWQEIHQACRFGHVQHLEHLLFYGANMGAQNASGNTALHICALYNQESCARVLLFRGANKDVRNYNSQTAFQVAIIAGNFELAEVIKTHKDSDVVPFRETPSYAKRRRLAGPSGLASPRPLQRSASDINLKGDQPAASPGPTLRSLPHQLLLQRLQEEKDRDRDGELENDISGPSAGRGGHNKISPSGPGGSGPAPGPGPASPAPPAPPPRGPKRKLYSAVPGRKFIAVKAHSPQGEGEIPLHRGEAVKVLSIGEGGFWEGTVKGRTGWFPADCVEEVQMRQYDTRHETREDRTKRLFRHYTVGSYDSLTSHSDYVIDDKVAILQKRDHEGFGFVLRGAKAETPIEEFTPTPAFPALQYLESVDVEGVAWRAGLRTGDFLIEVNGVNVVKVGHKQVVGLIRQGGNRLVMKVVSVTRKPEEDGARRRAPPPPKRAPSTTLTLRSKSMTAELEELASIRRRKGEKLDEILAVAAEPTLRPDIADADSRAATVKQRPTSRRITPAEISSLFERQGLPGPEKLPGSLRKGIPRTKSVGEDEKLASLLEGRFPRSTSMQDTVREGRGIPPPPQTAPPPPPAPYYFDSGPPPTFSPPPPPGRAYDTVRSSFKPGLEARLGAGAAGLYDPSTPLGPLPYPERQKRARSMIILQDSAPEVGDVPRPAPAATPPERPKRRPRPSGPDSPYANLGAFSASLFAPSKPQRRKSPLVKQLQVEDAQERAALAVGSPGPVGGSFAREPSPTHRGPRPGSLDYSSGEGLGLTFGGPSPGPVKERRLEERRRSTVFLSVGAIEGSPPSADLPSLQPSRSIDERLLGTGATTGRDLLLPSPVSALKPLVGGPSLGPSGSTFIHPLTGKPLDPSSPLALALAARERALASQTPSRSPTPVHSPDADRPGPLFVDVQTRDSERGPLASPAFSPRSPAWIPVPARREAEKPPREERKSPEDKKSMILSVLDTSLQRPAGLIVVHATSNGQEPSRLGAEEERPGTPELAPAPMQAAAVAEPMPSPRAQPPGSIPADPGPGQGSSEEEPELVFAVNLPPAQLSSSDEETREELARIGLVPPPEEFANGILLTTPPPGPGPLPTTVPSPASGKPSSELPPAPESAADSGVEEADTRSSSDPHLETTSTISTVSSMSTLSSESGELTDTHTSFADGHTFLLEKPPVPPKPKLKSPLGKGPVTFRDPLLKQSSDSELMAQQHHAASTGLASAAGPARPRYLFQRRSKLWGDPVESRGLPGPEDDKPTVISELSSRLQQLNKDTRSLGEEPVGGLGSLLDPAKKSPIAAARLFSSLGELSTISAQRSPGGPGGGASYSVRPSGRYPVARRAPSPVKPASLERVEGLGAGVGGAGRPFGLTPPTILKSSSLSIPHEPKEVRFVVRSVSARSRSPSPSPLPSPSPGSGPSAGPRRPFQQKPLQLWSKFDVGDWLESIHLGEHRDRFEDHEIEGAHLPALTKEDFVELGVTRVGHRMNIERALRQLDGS
Sequence of Serine/threonine-protein kinase PLK1 (P53350 whole entry): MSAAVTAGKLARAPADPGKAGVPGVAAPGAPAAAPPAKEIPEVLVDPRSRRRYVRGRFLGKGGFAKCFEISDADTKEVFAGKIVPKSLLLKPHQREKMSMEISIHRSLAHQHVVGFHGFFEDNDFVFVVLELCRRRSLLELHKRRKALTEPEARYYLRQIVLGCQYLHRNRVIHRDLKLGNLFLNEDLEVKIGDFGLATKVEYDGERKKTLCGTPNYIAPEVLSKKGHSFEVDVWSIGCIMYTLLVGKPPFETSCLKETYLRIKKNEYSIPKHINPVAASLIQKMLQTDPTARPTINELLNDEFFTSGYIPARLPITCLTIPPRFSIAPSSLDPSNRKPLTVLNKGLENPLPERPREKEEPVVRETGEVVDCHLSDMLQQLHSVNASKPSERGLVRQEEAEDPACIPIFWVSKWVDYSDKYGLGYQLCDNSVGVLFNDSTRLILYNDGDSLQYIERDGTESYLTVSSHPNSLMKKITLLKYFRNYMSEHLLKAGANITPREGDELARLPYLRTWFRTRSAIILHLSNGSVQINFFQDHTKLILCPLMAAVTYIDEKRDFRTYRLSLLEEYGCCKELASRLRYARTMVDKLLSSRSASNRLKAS
Sequence of Diacylglycerol kinase alpha (P20192 whole entry, the tested form may be a part): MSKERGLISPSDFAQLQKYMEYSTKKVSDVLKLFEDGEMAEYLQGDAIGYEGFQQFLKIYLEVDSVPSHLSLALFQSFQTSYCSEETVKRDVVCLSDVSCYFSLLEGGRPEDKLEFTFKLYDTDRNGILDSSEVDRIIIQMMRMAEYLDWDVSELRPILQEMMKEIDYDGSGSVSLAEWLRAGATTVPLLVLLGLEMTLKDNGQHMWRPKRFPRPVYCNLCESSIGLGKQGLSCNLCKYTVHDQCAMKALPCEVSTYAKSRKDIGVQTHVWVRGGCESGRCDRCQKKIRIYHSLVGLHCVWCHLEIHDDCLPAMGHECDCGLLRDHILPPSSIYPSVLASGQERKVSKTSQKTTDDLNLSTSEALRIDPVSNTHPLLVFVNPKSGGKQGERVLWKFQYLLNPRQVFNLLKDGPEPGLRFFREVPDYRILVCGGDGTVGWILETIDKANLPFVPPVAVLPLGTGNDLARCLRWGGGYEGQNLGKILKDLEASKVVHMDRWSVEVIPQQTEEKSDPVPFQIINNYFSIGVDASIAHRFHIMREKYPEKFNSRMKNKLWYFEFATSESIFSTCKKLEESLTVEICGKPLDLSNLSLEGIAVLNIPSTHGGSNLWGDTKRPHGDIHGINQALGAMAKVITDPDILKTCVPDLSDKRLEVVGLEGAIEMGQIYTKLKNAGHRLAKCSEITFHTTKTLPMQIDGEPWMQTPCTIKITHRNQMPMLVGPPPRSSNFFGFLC

For `O=C(O)c1cccc2c1NC(C(=O)O)C1CC=CC21` (stereo not drawn), the fold change (FC) turned out to be 0.73 in [1], 0.41 in experiment [2], 0.08 in experiment [3] and 0.23 in [4]. The IC50 in experiment [5] was 2.5 µM; in experiment [6], less than 5 µM. For the molecule `O=C(O)c1ccc2c(c1)[C@@H]1C=CC[C@@H]1[C@H](C(=O)O)N2`, the Ki in [7] was found to be 70 µM. Regarding `O=C(O)C1Nc2ccc(Cl)cc2C2C=CCC12` (stereo not drawn), the IC50 in [5] came out at 2.5 µM. In the case of `O=C(O)C1Nc2ccc(Oc3ccccc3)cc2C2C=CCC12` (stereo not drawn), in experiment [8], the half-maximal inhibitory concentration (IC50) came to 2.4 µM.

In the case of `O=C(O)C1Nc2ccc(F)c(Cl)c2C2C=CCC12` (stereo not drawn), the IC50 in experiment [6] was less than 5 µM. Turning to `CNc1ccc2c(c1)C1C=CCC1C(C(=O)O)N2` (stereo not drawn), the concentration for half-maximal inhibition (IC50) in experiment [6] is less than 5 µM. On to `O=C(O)C1Nc2ccc(Nc3ccccc3)cc2C2C=CCC12` (stereo not drawn), for which, in [6], the IC50 is less than 5 µM. Regarding `O=C(O)c1ccc2c(c1)C1C=CCC1C(C(=O)O)N2` (stereo not drawn), the fold change (FC) in [1] was 0.73; in experiment [2], 0.41; in experiment [3], 0.08; in [4], 0.23. In addition, the 50% inhibitory concentration (IC50) was 6.6 µM in [9], 2.5 µM in experiment [5] and less than 5 µM in [6]. With `O=C(O)C1Nc2c(I)cccc2C2C=CCC12` (stereo not drawn), the Ki in experiment [10] is 7.1 µM. Regarding `CCOC(=O)C1Nc2cccc(C(=O)O)c2C2C=CCC12` (stereo not drawn), the half-inhibitory concentration (IC50) in [6] is less than 5 µM. The same measure, in the same setting: as for `O=C(O)c1cccc2c1C1C=CCC1C(C(=O)O)N2` (stereo not drawn), the figure is less than 5 µM.

On to `O=C(O)C1Nc2ccc(F)cc2C2C=CCC12` (stereo not drawn), for which the IC50 in [6] was less than 5 µM.

For the molecule `O=C(O)C1Nc2c(O)cccc2C2C=CCC12` (stereo not drawn), the fold change (FC) in experiment [1] worked out at 0.73; in experiment [2], 0.41; in [3] it was 0.08; in experiment [4] it was 0.23.

In experiment [6], `CN(C)C(=O)c1ccc2c(c1)C1C=CCC1C(C(=O)O)N2` (stereo not drawn) gave an IC50 of less than 5 µM. On the same count and under the same terms, the figure for `CC(=O)Nc1ccc(OC(=O)c2cccc3c2NC(C(=O)O)C2CC=CC32)cc1` (stereo not drawn) is less than 5 µM. On the same count and under the same terms, as for `COc1ccc2c(c1)C1C=CCC1C(C(=O)O)N2` (stereo not drawn), the figure is less than 5 µM; as for `Cc1ccc2c(c1)C1C=CCC1C(C(=O)O)N2` (stereo not drawn), less than 5 µM; as for `NC(=O)c1cccc2c1NC(C(=O)O)C1CC=CC21` (stereo not drawn), less than 5 µM. For the molecule `O=C(O)C1Nc2cc(-c3cccnc3)ccc2C2C=CCC12` (stereo not drawn), the IC50 in [6] is less than 5 µM. Consider `CC(=O)c1ccc2c(c1)C1C=CCC1C(C(=O)O)N2` (stereo not drawn), for which the fold change (FC) in experiment [1] worked out at 0.73; in [2] it was 0.41; in [3], 0.08; in [4], 0.23. Besides, the IC50 in experiment [6] was less than 5 µM; in experiment [11] it was 6 µM.

Take `O=C(O)C1Nc2ccc(OC(F)(F)F)cc2C2C=CCC12` (stereo not drawn): in [6], the 50% inhibitory concentration (IC50) was less than 5 µM. Consider `O=C(O)C1Nc2ccc(Br)cc2C2C=CCC12` (stereo not drawn), for which the fold change (FC) was 0.73 in experiment [1], 0.41 in experiment [2], 0.08 in [3] and 0.23 in experiment [4]. Turning to `O=C(O)c1ccc([N+](=O)[O-])c2c1N[C@@H](C(=O)O)[C@H]1CC=C[C@@H]21`, in experiment [7], the Ki worked out at 17 µM.

Regarding `O=C(O)C1Nc2ccccc2C2C=CCC12` (stereo not drawn), the fold change (FC) worked out at 0.73 in [1], 0.41 in [2], 0.08 in [3] and 0.23 in experiment [4].

With `O=C(O)C1Nc2c(F)cccc2C2C=CCC12` (stereo not drawn), the fold change (FC) in experiment [1] worked out at 0.73; in experiment [2], 0.41; in [3] it was 0.08; in [4] it was 0.23. Consider `O=C(O)c1ccc2c(c1)NC(C(=O)O)C1CC=CC21` (stereo not drawn), for which, in experiment [6], the IC50 was less than 5 µM. Same read-out and setting: the figure for `CC(=O)Nc1ccc2c(c1)NC(C(=O)O)C1CC=CC21` (stereo not drawn) is less than 5 µM. Regarding `O=C(O)c1ccc2c(c1)[C@@H]1C=CC[C@@H]1[C@H](c1ccccn1)N2`, the half-maximal inhibitory concentration (IC50) in [12] came out at 17 µM.

`COC(=O)c1cccc2c1NC(C(=O)O)C1CC=CC21` (stereo not drawn) showed an IC50 in [6] of less than 5 µM. In the case of `NC(=O)c1ccc2c(c1)C1C=CCC1C(C(=O)O)N2` (stereo not drawn), the concentration for half-maximal inhibition (IC50) in [6] was less than 5 µM.
